{"source": "patent US20140050779A1", "about": "“[…]-2 INHIBITORS AND USES THEREOF” (SINGAPORE HEALTH SERVICES PTE. LTD., priority 2011, published 2014)", "key": {"TG-2 [1]": {"system": "TG-2", "assay": "TG-2 colorimetric microassay (transamidase activity) in lysate of treated human scleral fibroblasts", "type": "cell-based", "conditions": "for transamidase activity of endogenous cellular TG-2: human scleral fibroblasts, 0.1, 1, 10 and 100 μM for 5 days, concentration-dependent", "experimental": "(§1) All cells used in examples described herein were between passages 2-4. Passaged cells were plated at a concentration of 2×10^5/mL into 6 well plates containing DMEM with 10% FBS. […] Old media was removed from wells and 1 mL of drug was added with fresh full medium and incubated at 37° C. Fresh drugs were replaced daily consecutively for the next 5 days to avoid oxidation. The drugs/media was removed and wells were washed twice with 1×PBS. 200 μl of RIPA lysis buffer was added per well and incubated for 5 minutes and cells were scrapped into an eppendorf tube. The cells were stored at −20° C. until sonication. The cells were sonicated on ice thrice at 20% output power for 5 seconds each time and rested 1 minute in between each turn. Cell debris was spun down at 12000 rpm for 20 minutes. The supernatant was poured into a new eppendorf tube and cell concentrations were determined using the Dc Protein assay Kit (Bio-Rad, MA). Passaged cells were plated at a concentration of 1×10^5 into 6 well plates containing DMEM with 10% FBS. […] Freshly prepared muscarinic agents' at base line, 0.1, 1, 10 and 100 μM concentrations were added for 5 days (Table 2). The culture medium was removed and fresh medium containing the same muscarinic drug added every day to avoid drug changes such as atropine oxidation. Cell lysate was collected for relative quantitative (q) PCR and protein analysis at day 5.\n(§2) This assay was designed to assess the cross-linking activity of TG-2 between two proteins. TG activity was measured with TG-2 colorimetric Microassay kit (TG-Covtest, Covalab, Cambridge, UK). 150-200 μg of total protein was used per well for the TG-2 assay. Transglutaminase standards (Sigma) were used as a positive control. EDTA was used to inhibit the enzyme activity as a negative control.\n(§3) The approximate volume of reagents to use, the wavelengths to use to read absorbance, the incubation times were determined from a previous study that have carried out experiments with similar principles as described in Perez Alea M, Kitamura M, Martin G, Thomas V, Hitomi K, El Alaoui S., “Development of an isoenzyme-specific colorimetric assay for tissue transglutaminase 2 cross-linking activity”, Anal Biochem. 2009 Jun. 15; 389(2):150-6, Epub 2009 March 24. All reagents used and protein coated plates were part of the kit. Biotin cadaverine was reconstituted with 6 ml of deionized water and 90 μl was added into each well of the 96 well plate that comes coated with CBZ-GLN-GLY. The rest of the steps were followed as in the manufacturer's instructions and finally absorbance was read at 450 nm using a microplate reader (TECAN, Austria). All incubations were performed with gentle shaking on a laboratory orbital shaker.\n(§4) The TG-2 colorimetric assay serves as a high throughput and quantitative assay to assess transamidase activity. […] In vivo studies with these drugs were also conducted to determine the effect on myopia development (see FIGS. 14 and 15)."}, "TG-2 [2]": {"system": "TG-2", "assay": "TG-2 colorimetric microassay (transamidase activity) in lysate of treated mouse scleral fibroblasts", "type": "cell-based", "conditions": "for transamidase activity of endogenous cellular TG-2: mouse scleral fibroblasts, 0.1, 1, 10 and 100 μM for 5 days, concentration-dependent", "experimental": "as §1, §2, §3, §4"}, "[3]": {"system": "mouse eyes treated with −15D spectacle lens", "assay": "spectacle lens-induced myopia in mice, axial length and refractive error", "type": "in vivo", "conditions": "lens with 0.1% drug; for axial length: vs lens treated eyes; for refractive error: infrared photorefractor", "experimental": "Topical applications were administered to both eyes at the same time each day (approximately 9:00 AM) commencing on the 12th day (initiation of spectacle lens treatment). A compatible drug level was determined prior to the in vivo use in a tissue culture study with mouse scleral fibroblasts. […] This treatment schedule continued for four weeks starting on post-natal day 12 continued until post-natal day 42. All measurements were taken at post-natal day 42, the equivalent of 4 weeks of spectacle lens wear.\nEach eye was refracted every week to measure the refractive error using automated infrared photorefraction as described in Barathi, V. A., Beuerman, R. W., Schaeffel, F., 2009a, “Effects of unilateral topical atropine on binocular pupil responses and eye growth in mice”, Vision Res 49, 383-387. By using Optical Low Coherence Interferometry (OLCI, AC Master, Carl-Zeiss), the axial length of the eye was measured in-vivo as described in Yin G C, Gentle A, McBrien N A, “Muscarinic antagonist control of myopia: a molecular search for the M1 receptor in chick”, Mol. Vis. 2004; 13(10):787-93 and Barathi, V. A., Boopathi, V. G., Yap, E. P., Beuerman, R. W., 2008, “Two models of experimental myopia in the mouse”, Vision Res 48, 904-916. […] Differences of refractive power and axial length between eyes were calculated. Independent t-tests were used to compare experimental and control eyes in wild type and TGM2-deleted or M1-M5 mutant mice.\nRight eyes were experimental and left eyes served as contra-lateral control. In vivo axial length was measured at 2 weeks and 4 weeks after treatment. […] Automated infrared photorefractor was used to measure the refractive error measurements."}}, "data": [{"smiles": "CN1[C@@H]2CC[C@H]1C[C@@H](OC(=O)C(CO)c1ccccc1)C2", "note": "(some centres unmarked) [atropine]", "values": [{"measurement": "transamidase activity of endogenous cellular TG-2", "setting": "TG-2 [1]", "value": "reduced"}, {"measurement": "TG-2 activity, strongest reduction", "setting": "TG-2 [2]; mouse scleral fibroblasts, 0.1 μM, saturated at 1, 10 and 100 μM", "value": "most significantly reduced"}, {"measurement": "transamidase activity of endogenous cellular TG-2", "setting": "TG-2 [2]", "value": "reduced"}, {"measurement": "axial length", "setting": "[3]; 2 weeks and 4 weeks", "value": "significantly reduced"}, {"measurement": "refractive error", "setting": "[3]", "value": "shifted from myopic to hyperoic"}]}, {"smiles": "C[C@@H]1OC(=O)[C@H]2C[C@H]3CCCC[C@@H]3[C@@H](/C=C/[C@H]3CCC[C@H](C)N3C)[C@@H]12", "note": "[himbacine]", "values": [{"measurement": "transamidase activity of endogenous cellular TG-2", "setting": "TG-2 [1]", "value": "reduced"}, {"measurement": "TG-2 activity, strongest reduction among the antagonists", "setting": "TG-2 [1]; human scleral fibroblasts, all concentrations", "value": "most significantly reduced"}, {"measurement": "TG-2 activity as compared to atropine", "setting": "TG-2 [1]; human scleral fibroblasts, himbacine 0.1, 1, 10 & 100 μM, darifenacin 0.1, 1 & 10 μM", "value": "more significantly reduced"}, {"measurement": "TG-2 activity, strongest reduction among the antagonists", "setting": "TG-2 [2]; mouse scleral fibroblasts", "value": "most significantly reduced"}, {"measurement": "transamidase activity of endogenous cellular TG-2", "setting": "TG-2 [2]", "value": "reduced"}, {"measurement": "TG2 activity as compared to atropine", "setting": "TG-2 [2]; mouse scleral fibroblasts, high concentration (100 μM)", "value": "most significantly reduced"}, {"measurement": "reduction in the mouse myopia progression, among all the drugs", "setting": "[3]; 2 weeks and 4 weeks", "value": "most significant amount of reduction"}, {"measurement": "axial length", "setting": "[3]; 2 weeks and 4 weeks", "value": "significantly reduced"}, {"measurement": "refractive error", "setting": "[3]", "value": "shifted from myopic to hyperoic"}]}]}
